ChEMBL document CHEMBL1201862, “PubChem BioAssay data set” (2004)
The source made the active and inactive calls.

Key:
[1] = target: Heat shock protein HSP 90-alpha (Homo sapiens, UniProt P07900); format: functional, organism-based
[2] = Luminescence Cell-Based Dose Retest to Confirm Inhibitors of Cancer Stem Cells. [Related pubchem assays (depositor defined):AID2717, AID2721]; format: functional; conditions: Homo sapiens
[3] = tested on: Streptococcus sp. 'group A'; test: growth inhibition of control SK(-) GAS strain, dose response, counter-screen for streptokinase expression inhibitor project, luminescence, kanamycin, BacTiterGlo, confirmation (AID 1900); format: functional, organism-based
Streptococcus = test: Group A Streptococcus viability loss, dose response, counter-screen for streptokinase expression inhibitor project, luminescence, BacTiterGlo (AID 1915); format: functional, organism-based;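 also: potency for reduction of bacterial viability or growth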
Streptokinase A = target: T1, Streptokinase A (Streptococcus pyogenes serotype M1, UniProt P10520); test: S. pyogenes streptokinase expression inhibitors, potency, dose response, plasminogen activation absorbance, OD405 (AID 1914); format: functional, Streptococcus pyogenes M1 GAS;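 also: secreted streptokinase activity via plasminogen activation per viability signal from cell pellet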
T1 sequence (P10520 whole entry): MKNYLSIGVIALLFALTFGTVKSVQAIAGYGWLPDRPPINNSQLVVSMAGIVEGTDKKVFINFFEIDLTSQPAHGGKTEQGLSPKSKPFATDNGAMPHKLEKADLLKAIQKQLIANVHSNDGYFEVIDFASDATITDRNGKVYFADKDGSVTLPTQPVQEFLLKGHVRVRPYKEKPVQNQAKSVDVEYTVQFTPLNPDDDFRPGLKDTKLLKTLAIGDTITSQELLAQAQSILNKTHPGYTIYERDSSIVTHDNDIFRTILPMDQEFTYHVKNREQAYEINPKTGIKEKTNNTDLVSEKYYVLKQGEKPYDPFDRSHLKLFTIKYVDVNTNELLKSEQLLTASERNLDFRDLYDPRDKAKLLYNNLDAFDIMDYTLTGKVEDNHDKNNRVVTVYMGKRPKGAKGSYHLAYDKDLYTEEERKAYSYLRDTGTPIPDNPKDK

[4] = cytotoxicity toward DRD oncogenic fibroblasts, dose response, cell-based, non-viral oncogenic, luminescence (AID 1934); format: functional; conditions: Homo sapiens
BJ [5] = test: cells; format: functional, cell-based; conditions: Homo sapiens
BJ [6] = test: cytotoxicity toward BJ-TERT-LT-ST fibroblasts, dose response, cell-based, RAS-independent, luminescence (AID 1935); format: functional; conditions: Homo sapiens;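 also: BJ fibroblasts immortalized with TERT plus LT and ST oncogenes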
INS1 = test: beta cell apoptosis inhibitors, cytokine rescue, dose response, luminescence, retest (AID 449756); format: functional, cell-based; conditions: Rattus norvegicus;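 also: cell death triggered by IL-1 beta plus TNF-alpha plus IFN-gamma mixture; protective hits raise ATP signal compared with cytokine alone wells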
BJ [7] = test: cytotoxicity toward BJ-TERT fibroblasts, dose response, cell-based, RAS-independent, luminescence (AID 1933); format: functional; conditions: Homo sapiens
[8] = microbe, parasite or virus in culture; format: functional; conditions: Mycobacterium tuberculosis
[9] = target: Induced myeloid leukemia cell differentiation protein Mcl-1 (Homo sapiens, UniProt Q07820); format: functional
[10] = target: T2, Replicative DNA helicase DnaB (Mycobacterium tuberculosis, UniProt P9WMR3); test: DnaB intein splicing inhibitors, dose response, biochemical, cell-free fluorescence (AID 449749); format: functional
T2 sequence (P9WMR3 whole entry): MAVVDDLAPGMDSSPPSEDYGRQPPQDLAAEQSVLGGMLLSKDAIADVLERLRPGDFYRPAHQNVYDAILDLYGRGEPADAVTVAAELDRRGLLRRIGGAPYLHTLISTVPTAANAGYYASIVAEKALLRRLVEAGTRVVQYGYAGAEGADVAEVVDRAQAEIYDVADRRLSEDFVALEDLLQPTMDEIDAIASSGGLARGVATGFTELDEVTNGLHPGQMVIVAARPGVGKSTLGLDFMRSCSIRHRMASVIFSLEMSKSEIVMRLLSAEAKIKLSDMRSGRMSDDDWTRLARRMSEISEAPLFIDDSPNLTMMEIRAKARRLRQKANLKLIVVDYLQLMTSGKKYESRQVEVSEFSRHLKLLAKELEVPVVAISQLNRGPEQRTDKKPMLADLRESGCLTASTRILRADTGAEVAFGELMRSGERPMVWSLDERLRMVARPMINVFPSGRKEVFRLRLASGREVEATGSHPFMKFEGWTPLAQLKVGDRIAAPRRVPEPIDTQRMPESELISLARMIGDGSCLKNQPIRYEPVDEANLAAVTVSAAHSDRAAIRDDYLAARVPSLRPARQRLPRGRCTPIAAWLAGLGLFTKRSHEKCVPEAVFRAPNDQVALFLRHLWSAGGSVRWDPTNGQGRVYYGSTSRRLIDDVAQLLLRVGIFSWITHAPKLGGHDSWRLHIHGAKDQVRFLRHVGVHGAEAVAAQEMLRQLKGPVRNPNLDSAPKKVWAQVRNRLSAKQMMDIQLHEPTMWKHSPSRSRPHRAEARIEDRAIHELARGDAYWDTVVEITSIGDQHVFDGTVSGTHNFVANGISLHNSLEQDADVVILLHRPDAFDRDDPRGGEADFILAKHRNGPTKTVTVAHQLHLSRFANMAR

Genome polyprotein = Genome polyprotein (dengue virus type 2, UniProt P29990); test: Dengue-2 NS5 methyltransferase inhibitors, primary screen, biochemical, confirmation dose response (AID 588689); format: functional
Protein RecA = target: T3, Protein RecA (Mycobacterium tuberculosis, UniProt P9WHJ3); test: Fluorescence Cell-Free Homogeneous Dose Retest to Identify Inhibitors of RecA-Intein Splicing Activity. [Related pubchem assays (depositor defined):AID2097, AID2223, AID489010, AID492950]; format: functional
T3 sequence (P9WHJ3 whole entry): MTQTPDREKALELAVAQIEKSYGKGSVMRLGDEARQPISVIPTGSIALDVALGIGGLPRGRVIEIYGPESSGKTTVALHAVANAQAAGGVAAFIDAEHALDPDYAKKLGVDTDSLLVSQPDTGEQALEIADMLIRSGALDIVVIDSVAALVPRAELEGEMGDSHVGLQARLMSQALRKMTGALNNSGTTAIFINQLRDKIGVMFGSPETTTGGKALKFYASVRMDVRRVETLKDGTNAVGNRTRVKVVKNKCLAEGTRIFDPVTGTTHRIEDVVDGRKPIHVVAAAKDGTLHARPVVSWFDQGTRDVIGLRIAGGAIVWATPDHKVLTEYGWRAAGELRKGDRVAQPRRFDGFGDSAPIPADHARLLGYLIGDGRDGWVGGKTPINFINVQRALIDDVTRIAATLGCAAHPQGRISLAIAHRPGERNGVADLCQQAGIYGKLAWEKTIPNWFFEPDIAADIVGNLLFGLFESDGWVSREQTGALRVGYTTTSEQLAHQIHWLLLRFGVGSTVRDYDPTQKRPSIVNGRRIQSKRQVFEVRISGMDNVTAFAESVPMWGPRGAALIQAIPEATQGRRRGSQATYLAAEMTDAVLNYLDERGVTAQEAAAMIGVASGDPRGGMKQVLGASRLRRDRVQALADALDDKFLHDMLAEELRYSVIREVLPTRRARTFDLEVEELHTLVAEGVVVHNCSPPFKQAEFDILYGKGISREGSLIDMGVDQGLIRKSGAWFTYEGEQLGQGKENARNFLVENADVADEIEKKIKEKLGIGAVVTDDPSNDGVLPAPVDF

cells = format: functional
H9c2 = test: cells; format: functional, cell-based; conditions: Rattus norvegicus, H9c2, Myocardium
[11] = off-target signal loss in HeLa-CEM21 co-culture – HeLa F-luc CTL cells, cherry-picked, counter-screen for HIV-1 Env fusion inhibitor project, dose response (AID 652040); format: functional, cell-based;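 also: potency for signal decrease marking cytotoxic or nonspecific inhibition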
[12] = inhibitors of HIV Env-driven cell fusion, dose response, cherry-pick (AID 652057); format: functional, cell-based
[13] = inhibitors of clade B AD8 Env fusion, dose response, cell-based, cherry-pick (AID 652062); format: functional;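 also: luciferase signal from cell-cell fusion driven by HIV-1 clade B AD8 Env; potency is for inhibitors of fusion seen as a drop in luminescence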
[14] = ZM109 Env clade C HIV-1 fusion inhibitors, dose response, HeLa effector, CEM target cells, luciferase, cherry-pick (AID 652058); format: functional, cell-based
[15] = target: FAD-linked sulfhydryl oxidase ALR (Homo sapiens, UniProt P55789); test: inhibitors of human ALR sulfhydryl oxidase, dose response, biochemical, H2O2 detection, luminescence, cherry-pick (AID 493248)
[16] = intracellular Trypanosoma cruzi inhibitors in host cells – cell-based, plate reader, cherry-pick samples, set 3, dose response (AID 651818); format: functional;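 also: compounds incubated with infected cells for about four days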

Sequence of Genome polyprotein (P29990 2492-3391 limits assumed): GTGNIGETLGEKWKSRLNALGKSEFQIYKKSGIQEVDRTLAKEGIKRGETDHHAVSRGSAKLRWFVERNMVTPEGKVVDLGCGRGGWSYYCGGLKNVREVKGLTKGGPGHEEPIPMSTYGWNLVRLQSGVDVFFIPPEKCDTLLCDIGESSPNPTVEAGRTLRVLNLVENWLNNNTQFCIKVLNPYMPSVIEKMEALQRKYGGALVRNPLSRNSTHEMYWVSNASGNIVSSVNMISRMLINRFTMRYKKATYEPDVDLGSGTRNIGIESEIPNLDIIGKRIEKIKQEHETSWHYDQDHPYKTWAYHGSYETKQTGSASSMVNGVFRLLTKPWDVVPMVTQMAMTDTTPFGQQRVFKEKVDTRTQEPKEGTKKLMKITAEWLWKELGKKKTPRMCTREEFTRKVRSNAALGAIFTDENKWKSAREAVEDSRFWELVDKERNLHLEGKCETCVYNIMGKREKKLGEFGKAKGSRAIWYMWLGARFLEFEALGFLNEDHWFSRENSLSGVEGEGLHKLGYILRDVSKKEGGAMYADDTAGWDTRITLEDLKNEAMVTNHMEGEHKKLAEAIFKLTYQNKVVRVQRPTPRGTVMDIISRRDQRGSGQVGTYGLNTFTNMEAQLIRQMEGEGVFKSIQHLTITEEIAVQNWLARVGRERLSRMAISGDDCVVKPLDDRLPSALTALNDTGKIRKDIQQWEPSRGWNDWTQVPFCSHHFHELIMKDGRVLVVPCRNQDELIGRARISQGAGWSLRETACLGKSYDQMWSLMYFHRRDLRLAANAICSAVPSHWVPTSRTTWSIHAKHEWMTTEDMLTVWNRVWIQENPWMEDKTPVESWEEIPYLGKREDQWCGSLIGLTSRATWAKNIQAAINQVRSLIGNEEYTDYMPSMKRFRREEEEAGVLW
Sequence of Induced myeloid leukemia cell differentiation protein Mcl-1 (Q07820 whole entry): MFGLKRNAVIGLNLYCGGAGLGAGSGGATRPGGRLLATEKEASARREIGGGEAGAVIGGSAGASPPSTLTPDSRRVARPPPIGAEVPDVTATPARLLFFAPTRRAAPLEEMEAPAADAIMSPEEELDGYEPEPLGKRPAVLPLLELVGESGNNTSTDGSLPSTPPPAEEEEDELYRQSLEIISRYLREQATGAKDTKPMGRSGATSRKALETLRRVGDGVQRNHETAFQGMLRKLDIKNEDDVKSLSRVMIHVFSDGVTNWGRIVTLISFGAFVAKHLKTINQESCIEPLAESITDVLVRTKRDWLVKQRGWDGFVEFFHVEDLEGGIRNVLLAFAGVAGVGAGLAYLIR
Sequence of FAD-linked sulfhydryl oxidase ALR (P55789 whole entry): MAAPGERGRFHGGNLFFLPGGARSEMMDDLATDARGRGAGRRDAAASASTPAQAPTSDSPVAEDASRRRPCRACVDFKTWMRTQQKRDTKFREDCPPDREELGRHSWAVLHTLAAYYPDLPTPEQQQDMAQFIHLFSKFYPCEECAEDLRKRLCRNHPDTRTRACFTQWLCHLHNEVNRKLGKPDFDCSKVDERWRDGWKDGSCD

## CC(C)(C)c1nn(-c2ccccc2)c2nc(O)c(C=O)cc12
[1]
  AC50: 1.68 µM (active)
[2]
  AC50: 6.32 µM (active)

## CCCCC(CC)CN1C(=O)/C(=C/c2ccncc2)SC1=S (stereo not drawn)
[3]
  EC50: 2.59 µM (active)
Streptococcus
  EC50: 9.05 µM (active)
Streptokinase A
  EC50: > 150 µM (not active)
[4]
  EC50: > 150 µM (not active)
[2]
  AC50: 7.84 µM (active)
BJ [5]
  EC50: > 150 µM (not active)
BJ [6]
  EC50: > 150 µM (not active)
INS1
  AC50: 17.7 µM (active)
BJ [7]
  EC50: > 150 µM (not active)

## COCCCn1c(SCc2cccc(OC)c2)nc2cc(OC)c(OC)cc2c1=N
[8]
  CC50: > 40 µM (active)

## COc1ccccc1N1C(=O)C2ON(c3ccccc3)C(c3ccc(N(C)C)cc3)C2C1=O (stereo not drawn)
[9]
  IC50: 9.03 µM (not active)

## O=C1NC(=O)C(=Cc2ccc(Oc3ccc([N+](=O)[O-])cc3)cc2)C(=O)N1
[10]
  AC50: 29.5 µM (active)
Genome polyprotein
  IC50: 34.5 µM (active)
Protein RecA
  EC50: > 380 µM (inactive)
cells
  IC50: 43 µM (active)

## CN(C(=O)c1cccc(Nc2ccc(-c3ccc4c(c3)OCCO4)nn2)c1)C1CCCCC1
[8]
  CC50: 28.4 µM (active)

## COc1cc(-c2ccc3oc(-c4ccsc4)cc(=O)c3c2)cc(OC)c1OC
[8]
  CC50: 14.3 µM (active)
H9c2
  IC50: > 79 µM (inactive)

## CCC(C)(C)NC(=O)C(c1ccccc1F)N(Cc1ccco1)C(=O)c1csnn1 (stereo not drawn)
[11]
  AC50: 7.86 µM (active)
[12]
  AC50: 5 µM (active)
[13]
  AC50: 36.2 µM (active)
[14]
  AC50: 22.6 µM (active)

## COc1ccc(N/C=C/C(=O)c2sc(-c3ccccc3)nc2C)cc1
[8]
  CC50: > 40 µM (active)

## CCOC(=O)c1c(CSc2ccccc2)oc2cc(Br)c(O)c(CN(C)C)c12
[11]
  AC50: 1.38 µM (active)
[12]
  AC50: 0.907 µM (active)
[13]
  AC50: 2.46 µM (active)
[14]
  AC50: 1.58 µM (active)

## N=C(Cc1ccc(Cl)c(Cl)c1)NOC(=O)c1ccc(Br)o1
[1]
  AC50: 8.23 µM (active)

## CC(C(c1ccc2c(c1)OCO2)c1c(N)n(C)c(=O)n(C)c1=O)[N+](=O)[O-] (stereo not drawn)
[8]
  CC50: 36.3 µM (active)

## CCOC(=O)[C@H]1[C@H]2COc3ccccc3[C@@H]2N2C(=O)c3c(C)cc(C)cc3NC(=O)[C@@]12C
[11]
  AC50: 1.04 µM (active)
[12]
  AC50: 0.712 µM (active)
[13]
  AC50: 0.611 µM (active)
[14]
  AC50: 1.7 µM (active)

## CCc1ccc([C@H]2[C@@H]3C(=O)C[C@@H]4C(=O)N(Cc5ccccc5)C(=O)[C@@H]4[C@@H]3CN2S(=O)(=O)c2ccc(C)cc2)cc1
[11]
  AC50: 1.8 µM (active)
[12]
  AC50: 1.17 µM (active)
[13]
  AC50: 11.3 µM (active)
[14]
  AC50: 1.48 µM (active)

## Sc1nnc(-c2ccco2)n1/N=C/C(Cl)=C/c1ccccc1
Genome polyprotein
  IC50: 62.7 µM (active)
[15]
  AC50: 0.798 µM (active)

## C[C@H]1CN([C@@H](C)CO)C(=O)Cc2cc(NC(=O)Nc3cccc4ccccc34)ccc2O[C@@H]1CN(C)Cc1ccc(Oc2ccccc2)cc1
[16]
  AC50: 3.12 µM (active)

## COc1ccc(S(=O)(=O)Nc2ccc3c(c2)CC(=O)N([C@H](C)CO)C[C@@H](C)[C@@H](CN(C)S(=O)(=O)c2ccc(OC)cc2)O3)cc1
[16]
  AC50: 3.98 µM (active)

## Cc1noc(C)c1S(=O)(=O)N(C)C[C@H]1Oc2c(NC(=O)c3ccc(-c4nccs4)cc3)cccc2C(=O)N([C@@H](C)CO)C[C@H]1C
[16]
  AC50: 5.82 µM (active)

## COc1cc(Br)cc(/C=N/NC(=O)c2ccccc2O)c1O
[16]
  AC50: 1.49 µM (active)

## C[C@H](CO)N1C[C@H](C)[C@H](CN(C)Cc2ccc(C(=O)Nc3ccccc3N)cc2)Oc2ccc(NC(=O)Nc3ccc(C(F)(F)F)cc3)cc2CC1=O
[16]
  AC50: 1.86 µM (active)

## C[C@H]1CN([C@@H](C)CO)C(=O)c2cccc(NC(=O)Nc3ccc(C(F)(F)F)cc3)c2O[C@H]1CN(C)Cc1ccc(C(F)(F)F)cc1
[16]
  AC50: 3.22 µM (active)

## C[C@H]1CN([C@@H](C)CO)C(=O)c2cccc(NC(=O)c3ccc(-c4nccs4)cc3)c2O[C@@H]1CN(C)Cc1ccc(C(=O)Nc2ccccc2N)cc1
[16]
  AC50: 2.92 µM (active)

## C[C@H]1CN([C@@H](C)CO)C(=O)Cc2cc(NS(=O)(=O)c3ccc(Cl)cc3)ccc2O[C@H]1CN(C)Cc1ccccc1
[16]
  AC50: 4.6 µM (active)

## CCN(C[C@H]1N[C@@](C)(C(=O)OC)[C@H]2C(=O)N(Cc3ccccc3)C(=O)[C@@H]12)C(=O)Nc1ccc(C)cc1
[11]
  AC50: 1.61 µM (active)
[12]
  AC50: 0.83 µM (active)
[13]
  AC50: 3.28 µM (active)
[14]
  AC50: 0.959 µM (active)
